Experimental data as given in US7105541B2, “Naphthyl compounds, intermediates, compositions, and methods of use” (Eli Lilly and Company, priority 1996, dated 2006).
Where a name gives a salt, the structure may show the parent alone. Marks after values point to notes of the source that are not given here.

Tested on: ovariectomized rats
Assay: ovariectomized rat model of postmenopausal hyperlipidemia (serum cholesterol, uterine weight, uterine eosinophil peroxidase)
Format: in vivo
From the text: Experimental models of postmenopausal hyperlipidemia are known in the art. Germane to this invention is the ovariectomized rat model which is detailed in U.S. Pat. No. 5,464,845. Data presented in Table 1 show comparative results among ovariectomized rats, rats treated with 17-α-ethynyl estradiol (EE2), and rats treated with certain compounds of this invention. […] This uterine response to estrogen is well recognized in the art.
Not only did the compounds of the present invention reduce serum cholesterol compared to the ovariectomized animals, but the uterine weight was increased to lesser extent than those given EE2. Compared to estrogenic compounds known in the art, the benefit of serum cholesterol reduction while lessening the effect on uterine weight is unusual and desirable.
As expressed in the data below, estrogenicity also was assessed by evaluating the response of eosinophil infiltration into the uterus.
The data presented in Table 1 reflect the response per treatment group.

[1] = orally administered at 0.1 mg/kg/day, ovariectomized rats
[2] = ovariectomized rats, 0.1 mg/kg PO
[3] = ovariectomized rats, 0.01 mg/kg PO
[4] = ovariectomized rats, 1.0 mg/kg PO
[5] = ovariectomized rats, 10.0 mg/kg PO

SMILES | serum cholesterol (in words) [1] | uterine weight versus ovariectomized animals (in words) [1] | Serum Cholest. % Dec. (decrease versus ovariectomized controls) [2] | Uterine Eosinophil (Vmax), eosinophil peroxidase [2] | Uterine Weight % Inc (increase versus the ovariectomized controls) [2] | eosinophil infiltration into the uterus (in words) (stromal layer of ovariectomized rat uteri) | Serum Cholest. % Dec. (decrease versus ovariectomized controls) [3] [%] | Uterine Eosinophil (Vmax), eosinophil peroxidase [3] | Uterine Weight % Inc (increase versus the ovariectomized controls) [3] [%] | Serum Cholest. % Dec. (decrease versus ovariectomized controls) [4] | Uterine Eosinophil (Vmax), eosinophil peroxidase [4] | Uterine Weight % Inc (increase versus the ovariectomized controls) [4] | Serum Cholest. % Dec. (decrease versus ovariectomized controls) [5] | Uterine Eosinophil (Vmax), eosinophil peroxidase [5] | Uterine Weight % Inc (increase versus the ovariectomized controls) [5]
C#C[C@]1(O)CC[C@H]2[C@@H]3CCc4cc(O)ccc4[C@H]3CC[C@@]21C [EE2, 17-α-Ethynyl-estradiol, reference compound] | caused a decrease in serum cholesterol | substantially greater than the uterine weight of the ovariectomized animals | 88.1* % | 174.3* | 138.8* % | substantial and expected increase in eosinophil infiltration | – | – | – | – | – | – | – | – | –
COc1cccc(-c2ccc3cc(OC)ccc3c2Oc2ccc(OCCN3CCCCC3)cc2)c1.Cl [Example 1, 1-[4-[2-(1-piperidinyl)ethoxy]phenoxy]-2-(3-methoxyphenyl)-6-methoxynaphthalene hydrochloride] | – | – | 55.6* % | 4.8 | 21.9% | – | 12.1 | 2.1 | 9.6 | 60.5* % | 4.8 | 35.8* % | – | – | –
COc1cccc(-c2ccc3ccccc3c2Oc2ccc(OCCN3CCCCC3)cc2)c1.Cl [Example 2, 1-[4-[2-(1-piperidinyl)ethoxy]phenoxy]-2-(3-methoxyphenyl)naphthalene hydrochloride] | – | – | 59.6* % | 4.5 | 42.7* % | – | – | – | – | 66.2* % | 7.8 | 43.8* % | 59.0* % | 4.5 | 37.2* %
Cl.Oc1cccc(-c2ccc3cc(O)ccc3c2Oc2ccc(OCCN3CCCCC3)cc2)c1 [Example 3, 1-[4-[2-(1-piperidinyl)ethoxy]phenoxy]-2-(3-hydroxyphenyl)-6-hydroxynaphthalene hydrochloride] | – | – | 26.3* % | 4.8 | 10.4% | – | – | – | – | 45.7* % | 3.0 | 15.3% | 22.9% | 1.2 | 3.9%
O=C(c1ccc(OCCN2CCCCC2)cc1)c1c(-c2ccc(O)cc2)sc2cc(O)ccc12 [Raloxifene, [2-(4-hydroxyphenyl)-6-hydroxybenzo[b]thien-3-yl] [4-[2-(1-piperdinyl)ethoxy]phenyl]methanone hydrochloride, reference compound] | – | – | 49.3* % | 5.4 | 23.5% | – | – | – | – | – | – | – | – | – | –
